Assays:
[1] = physchem; details: thermodynamic from solid
[2] = tested on: ConA (concanavalin A) -induced mouse hepatitis model; assay: (B3) ConA (concanavalin A)-induced mouse hepatitis model; format: in vivo, Balb/c mice; details: 18 hours after ConA
Description: (B3) ConA (concanavalin A) -induced mouse hepatitis model
[Method] Male Balb/c mice aged 9 weeks were deprived of food for 20 hours and the drug or the solvent vehicle was administered orally in predetermined doses. After 1 hour, saline was administered intravenously to the NORMAL group and concanavalin A, 0.4 mg/mouse, was administered similarly to the CONTROL and DRUG groups. At 18 hours after administration of ConA, the blood was drawn and the liver isolated. Using the blood, the liver-derived enzymes (ALT and AST) in plasma were assayed. The liver was fixed in formalin and pathological specimens were prepared. Histopathological findings (inflammatory cell infiltration and liver cell necrosis) were evaluated.

[3] = tested on: IL-10; assay: (A3) Anti-CD3/CD28 antibody-stimulated cytokine production inhibitory activity in PBMC, ELISA: IL-10; format: cell-based; details: Homo sapiens, anti-CD3 and anti-CD28 antibodies, 24-hr culture supernatant
Description: (§1) (A3) Anti-CD3/CD28 antibody-stimulated TNF α production inhibitory activity in human peripheral blood monocytes (PBMC)
(§2) [Method] Monocytes isolated from healthy adult male volunteers were cultured and stimulated with anti-CD3 and anti-CD28 antibodies and the amounts of TNF, INF, 1L-2, IL-4 and IL-10 in the 24-hr culture supernatant were determined by ELISA.

[4] = Hygroscopicity; format: physicochemical
Description: (§3) In the study on polymorphism of compound (I), six kinds of polymorphs (A01, A09, A16, A20, A30 and A43 crystals) were found. For each of those polymorphs, hygroscopicity, stability in solid state, solubility and changes in crystallinity on compounding with various solvents were studied. However, the A30 crystal was not studied since it contains ethanol.

[5] = molecular target: T1, human PDE4-B1 isoform (Homo sapiens, UniProt Q07343); assay: (A1) PDE-IV inhibitory activity, crude enzyme from CHO cells expressing the cDNA; format: biochemical
T1 construct: made in house; host or cells: CHO cells
Description: (A1) PDE-IV inhibitory activity [Method] A crude enzyme was prepared from the cells (CHO cells) to which the cDNA for human PDE4-B1 isoform had been introduced for expression of the protein and the PDE4 inhibitory activity of the compound (I) of this invention was determined.

[6] = tested on: LEC rat spontaneous hepatitis model; assay: (B5) LEC rat spontaneous hepatitis model; format: in vivo, Long Evans Cinnamon (LEC) rats; details: oral once daily for 23 consecutive weeks
Description: (B5) LEC rat spontaneous hepatitis model
Long Evans Cinnamon (LEC) rats are known to spontaneously develop acute hepatitis with jaundice as a cardinal sign and 50~70% of them experience a fulminating stage and die. It is also known that almost all surviving animals run a clinical course of acute hepatitis-chronic hepatitis-biliary fibrosis (cirrhosis)-hepatocarcinoma.
[Method] To 9-week-old male LEC rats, either the drug or the solvent vehicle was administered orally in predetermined doses once daily for 23 consecutive weeks. On the day following the last dosing day, the blood was drawn and the liver isolated. Using the blood, the liver-derived enzymes (ALT, AST) in plasma were assayed. The liver was fixed in formalin and pathological specimens were prepared. Histopathological findings (inflammatory cell infiltration, biliary hyperplasia and liver cell necrosis) were evaluated.

[7] = tested on: P. acnes/LPS-induced mouse hepatitis model; assay: (B4) P. acnes/LPS-induced mouse hepatitis model; format: in vivo, ICR mice; details: oral, 9 hours after administration of the drug
Description: (B4) P. acnes/LPS-induced mouse hepatitis model
[Method] Propionibacterium acnes (P. acnes) killed by heat treatment was lyophilized and used in the experiment. To 7-week-old male ICR mice, either saline or P. acnes, 0.6 mg/0.2 ml/mouse, was administered intravenously. After 7 days, the drug or the solvent vehicle was administered orally in predetermined doses to the animals deprived of food for 20 hours. At. 9 hours after administration of the drug, the blood was drawn and the liver-derived enzymes (ALT and AST) in plasma were assayed.

[8] = (A3) Anti-CD3/CD28 antibody-stimulated cytokine production inhibitory activity in PBMC, ELISA: TNF γ; format: cell-based; details: Homo sapiens, anti-CD3 and anti-CD28 antibodies, 24-hr culture supernatant
Description: as §1, §2

[9] = tested on: mouse model of NC/NGa dermatitis; assay: (B7) Atopy, Method 2: spontaneous atopic dermatitis model; format: in vivo; details: oral once daily for 17 consecutive days
Description: [Method 2] Spontaneous atopic dermatitis mode:
In the mouse model of NC/NGa dermatitis, the drug was administered orally once daily for 17 consecutive days.

[10] = tested on: DGalN/LPS-induced rat hepatitis model; assay: (B1) DGalN/LPS-induced rat hepatitis model; format: in vivo, Wistar rats; details: oral, 24 hr after DGalN/LPS
Description: (B1) DGalN/LPS-induced rat hepatitis model
[Method] Male Wistar rats aged 12 weeks were deprived of food for 24 hours and dosed orally with the drug or the solvent vehicle in predetermined doses. Immediately thereafter, saline was administered from the tail vein to the NORMAL group and D-galactosamine hydrochloride (DGalN) (300 mg/kg)/LPS (0.32 µg/kg) was administered similarly to the CONTROL and DRUG groups. At 24 hr after administration of DGaIN/LAS, the blood was drawn and the liver isolated. Using the blood, liver-derived enzymes (ALT and AST) in plasma were assayed. The liver was fixed in formalin and phathological specimens were prepared. Histopathological findings (inflammatory cell infiltration and liver cell necrosis) were evaluated.

[11] = Stability in solid state; format: physicochemical; set-up: Water content: unit not given here
Description: The crystallinity of hydrochloride was decreased when it was mixed with ethanol.
as §3
(2) Stability in solid state

[12] = tested on: Guinea-pig model of delayed asthma; assay: (B6) Guinea-pig model of delayed asthma; format: in vivo, Hartley guinea pigs; details: oral 1 hour before exposure to the antigen; 4~8 hours after exposure
Description: (B6) Guinea-pig model of delayed asthma
[Method] Male Hartley guinea pigs were sensitized intraperitoneally with ovalbumin/Freund's complete adjuvant. On day 23 after immunization, the animals were caused to inhale a mist of ovalbumin solution from a sonic nebulizer for 3 minutes to elicit an asthmatic response. The drug was administered orally 1 hour before exposure to the antigen. The special airway resistance (sRaw) after exposure to the antigen was measured and the case in which the sRaw value had increased two-fold or more from the pre-exposure baseline in 4~8 hours was regarded as a case of delayed asthma.

[13] = tested on: IL-2; assay: (A3) Anti-CD3/CD28 antibody-stimulated cytokine production inhibitory activity in PBMC, ELISA: IL-2; format: cell-based; details: Homo sapiens, anti-CD3 and anti-CD28 antibodies, 24-hr culture supernatant
Description: as §1, §2

T1 sequence (Q07343 whole entry, canonical isoform): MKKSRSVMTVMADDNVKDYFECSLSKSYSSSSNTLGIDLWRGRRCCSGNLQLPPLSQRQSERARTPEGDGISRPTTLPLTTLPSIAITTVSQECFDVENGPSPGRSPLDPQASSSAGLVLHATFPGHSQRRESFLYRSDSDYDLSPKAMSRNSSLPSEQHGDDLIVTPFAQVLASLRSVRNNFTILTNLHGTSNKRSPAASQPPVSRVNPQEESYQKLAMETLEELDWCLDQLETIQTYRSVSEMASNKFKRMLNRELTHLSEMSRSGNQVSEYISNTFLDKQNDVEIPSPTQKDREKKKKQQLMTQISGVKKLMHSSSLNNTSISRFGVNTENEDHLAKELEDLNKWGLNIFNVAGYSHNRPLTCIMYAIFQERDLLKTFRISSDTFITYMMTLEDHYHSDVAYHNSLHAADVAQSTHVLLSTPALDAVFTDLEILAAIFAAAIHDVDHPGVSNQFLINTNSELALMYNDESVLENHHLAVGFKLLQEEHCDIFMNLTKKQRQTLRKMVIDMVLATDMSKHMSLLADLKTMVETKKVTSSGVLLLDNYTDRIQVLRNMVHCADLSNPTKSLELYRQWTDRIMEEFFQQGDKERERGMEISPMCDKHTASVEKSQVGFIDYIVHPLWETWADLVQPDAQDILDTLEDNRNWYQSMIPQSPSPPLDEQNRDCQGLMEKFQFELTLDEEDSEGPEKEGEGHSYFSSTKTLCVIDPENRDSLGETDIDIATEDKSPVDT

## CS(=O)(=O)O.O.O.O=C(Nc1cccc(-n2c(=O)c(Cc3cccnc3)nc3cccnc32)c1)c1cc(Cl)cc(Cl)c1 [Example 2, 4-(3-(3,5-dichlorobenzoylamino)phenyl)-2-(3-pyridyl)methyl-3-oxo-3,4-dihydropyrido[2,3-b]pyrazine methanesulfonate dihydrate]
[1]; saline or isotonic
  solubility at 30 min: 64.3 µg/mL
[1]; water
  solubility at 30 min: 887 µg/mL
[2]; oral 1 hour before ConA
  elevation of blood ALT: significantly inhibited
  elevation of blood AST: significantly inhibited
[2]; oral, histopathology
  inflammatory cell infiltration: inhibited
  liver cell necrosis: inhibited
[3]
  IC50: 0.0597 µM
[4]
  Hygroscopicity: less hygroscopic
[5]
  IC50: 0.026 µM
[6]
  elevation of blood ALT: significantly inhibited
  elevation of blood AST: significantly inhibited
[6]; histopathology
  inflammatory cell infiltration: inhibited
  liver cell necrosis: inhibited
[7]
  elevation of blood ALT: significantly inhibited
  elevation of blood AST: significantly inhibited
[8]
  IC50: 0.0573 µM
[9]
  disease state-ameliorating effect: significant disease state-ameliorating effect
[10]
  elevation of blood ALT: significantly inhibited
  elevation of blood AST: significantly inhibited
[10]; histopathology
  inflammatory cell infiltration: inhibited
  liver cell necrosis: inhibited
[11]; 70°C, 75% RH, 9 days
  % Residue: 101.6%
  Appearance: Pale yellowish white crystalline powder
  Crystal form: Unchanged
  Water content: 5.09
[11]; 70°C, 9 days
  % Residue: 100.3%
  Appearance: Pale yellowish white crystalline powder
  Crystal form: Unchanged
  Water content: 1.68
[11]; Initial
  % Residue: 100.0%
  Appearance: Pale yellowish white white crystalline powder
  Water content: 1.75
[11]; heat and humidity, summary of Table 3
  change in crystal form: no change
[11]; summary of Table 3
  chemical stability against heat and humidity: chemically stable
[12]
  delayed asthmatic response: inhibited
[13]
  IC50: 0.13 µM

From patent publication EP1118615A1, “NOVEL SALTS OF PYRIDOPYRAZINE COMPOUND AND CRYSTALS THEREOF” (FUJISAWA PHARMACEUTICAL CO., LTD., priority 1998, dated 2000)
